One test has as its system male mdx mice. The experiment in a line: In vivo assay for functional response to muscle injury (eccentric contraction-induced muscle fatigue). More on the design: species or system mouse. As to conditions: 7 months of age, PO 0.1, 1 and 10 mg/kg QD beginning 10 min prior to challenge, versus vehicle, FIG. 1. The source says: Under anesthesia, the right hind limb of a mouse is restrained at the knee and the foot attached to a motorized footplate/force transducer. Needle electrodes are inserted into the upper limb, either side of the sciatic nerve and a current sufficient to elicit a maximal muscle contraction is applied. Muscle tension is produced by moving the footplate to lengthen the plantarflexor muscles while the limb is under maximal stimulation. This is repeated 60 times to fatigue the muscles of the lower limb. Anesthesia, limb immobilization and limb stimulation are then repeated at regular intervals to measure maximal isometric force in the recovering limb. 7 to 9 animals are tested for each test condition.
T1 sequence (O60760 whole entry): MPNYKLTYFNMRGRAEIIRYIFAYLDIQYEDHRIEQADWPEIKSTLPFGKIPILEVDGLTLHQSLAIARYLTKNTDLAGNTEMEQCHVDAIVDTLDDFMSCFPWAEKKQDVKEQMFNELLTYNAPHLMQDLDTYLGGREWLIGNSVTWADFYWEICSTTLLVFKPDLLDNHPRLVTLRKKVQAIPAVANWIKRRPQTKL
As to `CC(C)(O)[C@H]1CC[C@H](NC(=O)c2cnc3nc(C4CC4)sc3c2)CC1` [Example 8], the “kinetics of recovery of maximal isometric torque after eccentric contraction challenge” value was “exhibited an acceleration in the kinetics of recovery”.

The next test concerns the target T1, hematopoietic prostaglandin D synthase (H-PGDS) (Homo sapiens, UniProt O60760).
T1 construct: Full length human H-PGDS cDNA (Invitrogen Ultimate ORF IOH13026) was amplified by PCR; 6-His (N); TEV protease cleavage site (N); made in house; host or cells: E. coli BL21 (DE3*), vector pET22b+
In words: H-PGDS RapidFire High Throughput Mass Spectrometry Assay. The test is classed as biochemical. Particulars: conversion of PGH2 to PGD2 by human H-PGDS, 10 nM enzyme; mean pIC50; read-out: Potency Range (mean pIC50) (converted). As to the method: The H-PGDS RapidFire™ mass spectrometric assay monitors conversion of prostaglandin H2 (PGH2) to prostaglandin D2 (PGD2) by hematopoietic prostaglandin D synthase (H-PGDS). In the assay format described here, the substrate (PGH2) is formed in situ by the action of cyclooxygenase-2 on arachidonic acid. This first step is set up to be fast, and generates a burst of PGH2 at ˜10 μM. The PGH2 is then further converted to PGD2 by the H-PGDS enzyme. […] Plates are then read on the RapidFire™ high throughput solid phase extraction system (Agilent) which incorporates a solid phase extraction step coupled to a triple quadrupole mass spectrometer (AB SCIEX). Relative levels of PGD2 and PGF2α, which acts as a surrogate for substrate, are measured and a percent conversion calculated. Inhibitors are characterized as compounds which lower the conversion of PGH2 to PGD2.
Full length human H-PGDS cDNA (Invitrogen Ultimate ORF IOH13026) was amplified by PCR with the addition of a 5′ 6-His tag and TEV protease cleavage site. The PCR product was digested with NdeI and XhoI and ligated into pET22b+ (Merck Novagen®). Expression was carried out in E. coli strain BL21 (DE3*) using auto-induction Overnight Express™ Instant TB medium (Merck Novagen®) supplemented with 1% glycerol. The culture was first grown at 37° C. and the temperature was reduced to 25° C. when OD600 reached 2.0. Cells were harvested by centrifugation after a further 18 hours. 10 g of E. coli cell pellet was suspended to a total volume of 80 mL in lysis buffer (20 mM Tris-Cl pH 7.5, 300 mM NaCl, 20 mM imidazole, 5 mM β-mercaptoethanol, 10% glycerol). 1 mg/mL protease inhibitors (Protease Inhibitor Cocktail Set III, Merck Calbiochem®) and 1 mg/mL lysozyme were added to the cell suspension. The suspension was then sonicated for 5 min (Ultrasonic Processor VCX 750, Cole-Parmer Instrument Co.) with a micro probe (50% amplitude, 10 sec on/off) and then centrifuged at 100,000 g for 90 minutes (at 4° C.). The supernatant was loaded onto a Ni-NTA HiTrap column (5 mL, GE Healthcare, pre-equilibrated in lysis buffer). The column was washed with 10 column volumes of lysis buffer and eluted with lysis buffer containing 500 mM imidazole. The pooled protein peak fractions were concentrated using a 10 kDa centrifugal filter at 3500 g and 4° C. (Amicon Ultra-15 centrifugal filter unit with Ultracel-10 membrane from Millipore). Further purification of the concentrated protein was carried out using gel filtration chromatography on a HiLoad 26/600 Superdex75 preparative grade column (GE Healthcare Life Sciences) using 50 mM Tris pH 7.5, 50 mM NaCl, 1 mM dithiothreitol, 1 mM MgCl2. Fractions containing the protein were pooled, concentrated as described above, and stored at −80° C.
The full length human COX-2 gene (accession number L15326) was amplified by PCR to generate an EcoRI-Hindi 11 fragment containing an in-frame FLAG tag. This was subcloned into pFastBac 1 (Invitrogen). The COX-2 FLAG plasmid was recombined into the baculovirus genome according to the BAC-to-BAC protocol described by Invitrogen. Transfection into Spodoptera frugiperda (Sf9) insect cells was performed using Cellfectin (Invitrogen), according to the manufacturer's protocol. Super Sf9 cells were cultured in EX420 media (SAFC Biosciences) to a density of approximately 1.5×10^6 cells/mL within a wave bioreactor. Recombinant virus was added at a Multiplicity of Infection (MOI) of 5 and the culture was allowed to continue for 3 days. Cells were harvested using a continuous feed centrifuge run at 2500 g at a rate of approximately 2 L/min with cooling. The resultant cell slurry was re-centrifuged in pots (2500 g, 20 min, 4° C.) and the cell paste was stored at −80° C. 342 g of cell paste was re-suspended to a final volume of 1600 mL in a buffer of 20 mM Tris-Cl pH 7.4, 150 mM NaCl, 0.1 mM EDTA, 1.3% w/v n-octyl-β-D-glucopyranoside containing 20 Complete EDTA-free Protease Inhibitor Cocktail tablets (Roche Applied Science). […]
For the molecule `CC(C)(O)[C@H]1CC[C@H](NC(=O)c2cnc3nc(C4CC4)sc3c2)CC1` [Example 8], the IC50 was 10 to 79.4 nM.
With `CC(C)(O)[C@H]1CC[C@H](NC(=O)c2cnc3nc(C4CCC4)sc3c2)CC1` [Example 14, 2-Cyclobutyl-N-((trans)-4-(2-hydroxypropan-2-yl)cyclohexyl)thiazolo[4,5-b]pyridine-6-carboxamide], the IC50 was 10 to 79.4 nM.
For the molecule `O=C(N[C@H]1CC[C@H](CO)CC1)c1cnc2nc(C3CC3)sc2c1` [Example 20, 2-Cyclopropyl-N-((trans)-4-(hydroxymethyl)cyclohexyl)thiazolo[4,5-b]pyridine-6-carboxamide], the IC50 is 100 to 1000 nM.
Same read-out and setting: the result for `CC(C)(O)[C@H]1CC2(C[C@H](NC(=O)c3cnc4nc(C5CC5)sc4c3)C2)C1` (single isomer, unassigned) [Example 42] reads 10 to 79.4 nM; that for `CN(C)c1nc2ncc(C(=O)N[C@H]3CC[C@H](C(C)(C)O)CC3)cc2s1` [Example 9], 10 to 79.4 nM.
On to `C[C@]1(O)C[C@@H](NC(=O)c2cnc3cc(Br)sc3c2)C1` [Example 3], for which the IC50 was 1260 to 10000 nM.
The same measure, in the same setting: the result for `O=C(N[C@H]1CC[C@H](O)CC1)c1cnc2nc(C3CC3)sc2c1` [Example 16, 2-Cyclopropyl-N-((trans)-4-hydroxycyclohexyl)thiazolo[4,5-b]pyridine-6-carboxamide] reads 100 to 1000 nM; that for `CC(C)(C)c1nc2ncc(C(=O)N[C@H]3CC[C@H](C(C)(C)O)CC3)cc2s1` [Example 27, 2-(tert-Butyl)-N-(trans-4-(2-hydroxypropan-2-yl)cyclohexyl)thiazolo[4,5-b]pyridine-6-carboxamide], 100 to 1000 nM.
Still for that read-out and setting: the result for `O=C(N[C@H]1CC[C@H](N2CC(F)(F)C2)CC1)c1cnc2nc(C3CC3)sc2c1` [Example 21, 2-Cyclopropyl-N-((trans)-4-(3,3-difluoroazetidin-1-yl)cyclohexyl)thiazolo[4,5-b]pyridine-6-carboxamide] reads 100 to 1000 nM; that for `O=C(N[C@H]1CC[C@H](C(O)C(F)(F)F)CC1)c1cnc2nc(C3CC3)sc2c1` (mixture of isomers) [Example 32, Racemic 2-Cyclopropyl-N-(trans-4-(2,2,2-trifluoro-1-hydroxyethyl)cyclohexyl)thiazolo[4,5-b]pyridine-6-carboxamide], 10 to 79.4 nM; that for `CC(C)(O)C12CC(NC(=O)c3cnc4cc(Br)sc4c3)(C1)C2` [Example 11, 2-Bromo-N-(3-(2-hydroxypropan-2-yl)bicyclo[1.1.1]pentan-1-yl)thieno[3,2-b]pyridine-6-carboxamide], 100 to 1000 nM.
Same read-out and setting: to `CN(c1nc2ncc(C(=O)N[C@H]3CC[C@H](C(C)(C)O)CC3)cc2s1)C(C)(C)C` [Example 38, 2-(tert-Butyl(methyl)amino)-N-(trans-4-(2-hydroxypropan-2-yl)cyclohexyl)thiazolo[4,5-b]pyridine-6-carboxamide] belongs 100 to 1000 nM; to `C[C@]1(O)CC[C@H](NC(=O)c2cnc3nc(C4CC4)sc3c2)CC1` [Example 17, 2-Cyclopropyl-N-((trans)-4-hydroxy-4-methylcyclohexyl)thiazolo[4,5-b]pyridine-6-carboxamide], 1260 to 10000 nM; to `CC(C)Nc1nc2ncc(C(=O)N[C@H]3CC[C@H](C(C)(C)O)CC3)cc2s1` [Example 5], 100 to 1000 nM.
Regarding `CC(C)(O)C12CC(NC(=O)c3cnc4nc(C5CC5)sc4c3)(C1)C2` [Example 13, 2-Cyclopropyl-N-(3-(2-hydroxypropan-2-yl)bicyclo[1.1.1]pentan-1-yl)thiazolo[4,5-b]pyridine-6-carboxamide], the IC50 was 100 to 1000 nM.
With `CC(C)c1nc2ncc(C(=O)N[C@H]3CC[C@H](C(C)(C)O)CC3)cc2s1` [Example 30, N-(trans-4-(2-Hydroxypropan-2-yl)cyclohexyl)-2-isopropylthiazolo[4,5-b]pyridine-6-carboxamide], the IC50 was 100 to 1000 nM.
The same measure, in the same setting: the result for `CC(C)(O)[C@H]1CC[C@H](NC(=O)c2cnc3cc(Br)sc3c2)CC1` [Example 1] reads 100 to 1000 nM.

The values are drawn from US20210139507A1, “FUSED PYRIDINES WHICH ACT AS INHIBITORS OF H PGDS” (GlaxoSmithKline Intellectual Property Development Limited, priority 2017, published 2021).
